Columns and labels:
HIV [1] = conditions: as reported in the prior art; cited from earlier work
in vivo = experiment: in vivo; design: species or system rats; conditions: rat
Excerpt: In rats, for example, the concentration of MKC-442 in the brain was 100% of that seen in the plasma.

[2] = test system: wild-type (drug-sensitive) and several mutant strains of HIV; experiment: Cell culture assay systems, inhibition of HIV replication (alone and in drug combinations); type: cell-based
Excerpt: MKC-442, although a nucleoside analogue, functions as a non-nucleoside reverse transcriptase inhibitor. It is considered an allosteric inhibitor because it appears to exert its activity by binding to an “allosteric position”, i.e., one other than the binding site, of the enzyme.

[3] = Phase I study, single escalating doses: pharmacokinetics and tolerance; type: in vivo, HIV-infected volunteers
Excerpt: A Phase I study evaluated the pharmacokinetics and tolerance of single escalating doses of MKC-442 in HIV-infected volunteers.

HIV [4] = experiment: Phase I/II double-blind, placebo controlled trial of repeated multiple oral doses
Method: Preliminary data from a Phase I/II double-blind, placebo controlled trial designed to evaluate the safety and efficacy of repeated multiple oral doses of MKC-442 in HIV-infected patients has now also been evaluated. A total of 49 patients were treated with MKC-442 for up to two months. Doses ranging from 100 mg to 1000 mg twice a day were given to groups of six to eight patients at each dosage level.

Compound	activity against HIV (HIV [1])	toxicity (HIV [1])	Kp (in vivo)	penetration into the central nervous system (in vivo)	oral bioavailability (in vivo; po)	combination effect on HIV replication ([2]; three drug combination with AZT and saquinavir)	combination effect on HIV replication ([2]; two drug combination with AZT)	combination effect on HIV replication ([2]; two drug combination with DDI)	potency compared with nevirapine ([2]; wild-type and mutant strains of HIV)	ability to inhibit HIV replication ([2]; wild-type and mutant strains resistant to established non-nucleoside reverse transcriptase inhibitors)	concentrations of the drug in the plasma ([3]; groups receiving higher doses, compared with levels required to suppress 90% of the virus in culture)	tolerance ([3]; single escalating doses, HIV-infected volunteers)	viral load reduction (average) (HIV [4]; 705 mg and 1000 mg twice a day, all patients, after one week) [%]	tolerability (HIV [4]; over 308 patient-weeks of drug exposure, 100 mg to 1000 mg twice a day)
Nc1ccn(C2CSC(CO)O2)c(=O)n1 (racemic) [BCH-189, 2-hydroxymethyl-5-(cytosin-1-yl)-1,3-oxathiolane]	approximately the same activity against HIV as AZT	little toxicity	–	–	–	–	–	–	–	–	–	–	–	–
Nc1nc(=O)n([C@@H]2CS[C@H](CO)O2)cc1F (relative stereo) [FTC, cis-2-hydroxymethyl-5-(5-fluorocytosin-1-yl)-1,3-oxathiolane]	potent HIV activity	–	–	–	–	–	–	–	–	–	–	–	–	–
CCOCn1c(Cc2ccccc2)c(C(C)C)c(=O)[nH]c1=O [MKC-442, 6-benzyl-1-(ethoxymethyl)-5-isopropyluracil]	–	–	1	excellent	good	synergistic inhibition	synergistic inhibition	synergistic inhibition	greater potency than nevirapine	retained much of its ability to inhibit HIV replication	mich higher than the levels required to suppress 90% of the virus in culture	generally well tolerated	96	well tolerated
